These results are taken from patent US8691851B2, “Lanthanide metal complexes useful in treating cancer” (National University of Singapore, priority 2009, dated 2014).

What all share (format): cell-based
The subject of assay [1] is SHEP-1 and MDA-MB-231 cancer cells. Kind of assay: Morphological changes of cancer cells. The settings on record: 10 mM 3MA, then 5 μM (SHEP-1) or 10 μM (MDA-MB-231) C19H24N3O5S5Pr.
Assay [2] relates to LC3 II. Kind of assay: LC3 II formation by Western blot. Particulars: SHSY5Y cells, 5 or 10 mM 3MA for 2 hours, then 10 uM C19H24N3O5S5Pr for 7 hours.
Assay [3] addresses T1, PPARγ (Homo sapiens, UniProt P37231).
T1 sequence (P37231 1-505): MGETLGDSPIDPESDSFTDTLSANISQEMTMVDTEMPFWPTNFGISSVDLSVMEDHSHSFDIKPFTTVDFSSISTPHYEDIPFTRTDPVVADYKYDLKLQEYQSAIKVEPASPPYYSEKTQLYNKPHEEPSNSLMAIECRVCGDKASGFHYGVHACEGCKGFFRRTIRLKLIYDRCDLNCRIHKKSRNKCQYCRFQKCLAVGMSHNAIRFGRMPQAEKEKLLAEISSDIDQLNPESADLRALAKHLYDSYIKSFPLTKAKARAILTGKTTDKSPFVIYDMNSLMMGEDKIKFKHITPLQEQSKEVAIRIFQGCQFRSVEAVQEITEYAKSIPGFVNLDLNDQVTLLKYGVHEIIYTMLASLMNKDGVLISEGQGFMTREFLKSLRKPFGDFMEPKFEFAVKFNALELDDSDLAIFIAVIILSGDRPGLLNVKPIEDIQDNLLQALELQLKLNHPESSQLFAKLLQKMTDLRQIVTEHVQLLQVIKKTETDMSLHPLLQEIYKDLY
Further details: endogenous in cells; host or cells: SHSY5Y, SHEP1 / SHEP-1 (neuroblastoma). The settings on record: SHSY5Y and SHEP1 cells in 10% serum, 0 to 10 μM, 18 hours. As to the method: To determine if C19H24N3O5S5Pr activates PPARγ, SHSY5Y and SHEP1 neuroblastoma cells were transiently co-transfected with a 3×PPRE luciferase plasmid and renilla plasmid for transfection efficiency. Forty eight hours following transfection, the cells were exposed to increased concentrations (0 to 10 μM) of 15d-PGJ2 and C19H24N3O5S5Pr for 18 hours. The fold increase in luciferase activity correlates with the PPARγ activity of the cell. PPARγ activity is determined by calculating the RLU/renilla/μg total protein.
To assess if C19H24N3O5S5Pr activation of PPARγ is dependent on expression of PPARγ neuroblastoma cells, neuroblastoma cells SHEP1 and SHSY5Y were transiently co-transfected with a 3×PPRE luciferase plasmid and renilla plasmid for transfection efficiency. Forty eight hours following transfection, cells were exposed to increased concentrations (0 to 20 μM) of C19H24N3O5S5Pr for 18 hours. PPARγ activity was calculated as luciferase RLU/renilla/μg total protein.

Assay [4] has as its system RhoB. Kind of assay: RhoB induction after preincubation with PPAR-γ antagonist. The settings on record: SHEP-1 cells, 10 uM GW9662 for 2 hours, then 10 uM C19H24N3O5S5Pr for 4 hours. As to the method:
SHEP-1 cancer cells were preincubated with 10 uM GW9662, a pharmacological PPAR-γ antagonist that was able to abrogate the induction of RhoB protein by C19H24N3O5S5Pr, or vehicle control for 2 hours before being exposed to 10 uM of C19H24N3O5S5Pr for 4 hours.

For `Cn1cnc(N)c2ncnc1-2` [3MA, 3-methyl adenine, reference compound], the “cell morphology after 3MA preincubation followed by C19H24N3O5S5Pr” value in assay [1] is given as “did not demonstrate this death-like morphology”. The “LC3 II levels induced by C19H24N3O5S5Pr after 3MA preincubation” value in assay [2] is given as “LC3 II levels were reduced”. `CCCCC/C=C/C=C1/C(=O)C=CC1C/C=C\CCCC(=O)O` (stereo not shown) [15dPGJ2, 15-deoxy-Delta-12,14, prostaglandin, reference compound]: in assay [3], the “PPARγ activation (luciferase RLU/renilla/μg total protein)” value was “did not display any PPARγ activation”. Turning to `O=C(Nc1ccccc1)c1cc([N+](=O)[O-])ccc1Cl` [GW9662], the “RhoB expression induced by C19H24N3O5S5Pr after antagonist preincubation” value in assay [4] was “RhoB was not expressed”.
